The values that follow come from ChEMBL document CHEMBL4673260, “Pyridine alkaloids with activity in the central nervous system” (Bioorg Med Chem, 2020).

For data set [1], the target named is T1, Acetylcholinesterase (Homo sapiens, UniProt P22303). As to the kind of experiment: Inhibition of human erythrocyte acetylcholinesterase using acetylthiocholine as substrate preincubated for 20 mins followed by substrate addition and measured every 30 secs for 1 hr by Ellman's method. On the technique in general: In Ellman's method for cholinesterases, released thiocholine reacts with DTNB.
T1 sequence (P22303 whole entry): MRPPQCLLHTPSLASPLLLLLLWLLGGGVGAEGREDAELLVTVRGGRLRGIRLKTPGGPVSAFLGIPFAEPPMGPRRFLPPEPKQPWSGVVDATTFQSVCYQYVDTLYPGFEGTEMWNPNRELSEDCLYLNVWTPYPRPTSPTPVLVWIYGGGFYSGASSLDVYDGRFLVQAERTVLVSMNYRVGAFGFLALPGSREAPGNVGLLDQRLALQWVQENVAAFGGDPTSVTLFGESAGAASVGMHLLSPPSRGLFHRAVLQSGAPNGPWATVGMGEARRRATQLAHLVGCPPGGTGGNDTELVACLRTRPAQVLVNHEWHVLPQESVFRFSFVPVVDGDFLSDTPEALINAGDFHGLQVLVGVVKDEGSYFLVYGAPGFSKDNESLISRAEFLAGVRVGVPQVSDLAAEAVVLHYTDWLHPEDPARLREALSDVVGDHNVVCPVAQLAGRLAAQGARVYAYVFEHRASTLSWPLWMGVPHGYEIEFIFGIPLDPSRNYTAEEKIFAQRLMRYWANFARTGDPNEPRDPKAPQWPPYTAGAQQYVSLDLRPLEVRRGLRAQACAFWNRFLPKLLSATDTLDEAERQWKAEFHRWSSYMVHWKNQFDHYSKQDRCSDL

For data set [2], the target named is Acetylcholinesterase (Electrophorus electricus, UniProt O42275).
Sequence of Acetylcholinesterase (Electrophorus electricus, UniProt O42275) (O42275 whole entry): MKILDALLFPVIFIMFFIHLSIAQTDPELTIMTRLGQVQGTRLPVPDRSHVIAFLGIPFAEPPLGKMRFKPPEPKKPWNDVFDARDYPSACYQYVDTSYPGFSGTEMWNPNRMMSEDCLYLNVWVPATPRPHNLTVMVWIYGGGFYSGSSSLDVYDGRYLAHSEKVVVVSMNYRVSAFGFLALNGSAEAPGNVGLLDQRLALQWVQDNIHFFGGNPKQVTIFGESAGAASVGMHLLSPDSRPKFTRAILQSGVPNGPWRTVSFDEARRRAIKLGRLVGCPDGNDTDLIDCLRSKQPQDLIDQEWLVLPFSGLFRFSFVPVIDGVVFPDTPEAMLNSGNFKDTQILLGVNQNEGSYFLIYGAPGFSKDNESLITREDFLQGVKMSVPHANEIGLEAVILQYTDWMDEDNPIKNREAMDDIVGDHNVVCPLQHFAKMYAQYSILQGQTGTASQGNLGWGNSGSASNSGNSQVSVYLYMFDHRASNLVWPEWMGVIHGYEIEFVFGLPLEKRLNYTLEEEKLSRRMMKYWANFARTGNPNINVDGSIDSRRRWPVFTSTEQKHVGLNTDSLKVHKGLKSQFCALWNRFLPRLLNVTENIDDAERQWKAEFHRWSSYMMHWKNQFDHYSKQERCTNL
Data set [3] is filed under the species Rattus norvegicus. As to the kind of experiment: Antagonist activity at nAChR in Sprague-Dawley rat striatum assessed as inhibition of nicotine-evoked [3H] dopamine release at 100 nM relative to control. The class given is tissue-based.
Data set [4] has as its target Neuronal acetylcholine receptor; alpha4/beta2 (Rattus norvegicus, UniProt P09483+P12390). As to the kind of experiment: Inhbition of [3H] nicotine binding to rat brain alpha4beta2 nAChR by Cheng-Prusoff equation analysis.
In data set [5] the target is T2, Neuronal acetylcholine receptor; alpha4/beta2 (Homo sapiens, UniProt P17787+P43681). As to the kind of experiment: Potency index, ratio of nicotine I-max to compound I-max for human brain alpha4beta2 nAChR expressed in CHO cells. The class given is cell-based.
T2 sequence (P17787 whole entry): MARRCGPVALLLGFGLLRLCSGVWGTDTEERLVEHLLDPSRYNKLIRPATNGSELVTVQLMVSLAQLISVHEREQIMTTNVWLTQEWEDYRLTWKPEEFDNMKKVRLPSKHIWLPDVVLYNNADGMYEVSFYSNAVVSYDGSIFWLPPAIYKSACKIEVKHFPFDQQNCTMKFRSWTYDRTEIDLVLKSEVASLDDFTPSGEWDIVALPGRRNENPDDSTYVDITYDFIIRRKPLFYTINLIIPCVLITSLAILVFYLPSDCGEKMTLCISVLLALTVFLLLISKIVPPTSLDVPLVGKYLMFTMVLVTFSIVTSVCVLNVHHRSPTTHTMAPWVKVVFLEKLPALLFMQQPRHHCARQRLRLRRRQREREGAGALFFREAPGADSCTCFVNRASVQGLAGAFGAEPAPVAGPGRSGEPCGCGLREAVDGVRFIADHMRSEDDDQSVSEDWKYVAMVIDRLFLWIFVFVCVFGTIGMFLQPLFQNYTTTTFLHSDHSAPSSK
T2 sequence (P43681 whole entry): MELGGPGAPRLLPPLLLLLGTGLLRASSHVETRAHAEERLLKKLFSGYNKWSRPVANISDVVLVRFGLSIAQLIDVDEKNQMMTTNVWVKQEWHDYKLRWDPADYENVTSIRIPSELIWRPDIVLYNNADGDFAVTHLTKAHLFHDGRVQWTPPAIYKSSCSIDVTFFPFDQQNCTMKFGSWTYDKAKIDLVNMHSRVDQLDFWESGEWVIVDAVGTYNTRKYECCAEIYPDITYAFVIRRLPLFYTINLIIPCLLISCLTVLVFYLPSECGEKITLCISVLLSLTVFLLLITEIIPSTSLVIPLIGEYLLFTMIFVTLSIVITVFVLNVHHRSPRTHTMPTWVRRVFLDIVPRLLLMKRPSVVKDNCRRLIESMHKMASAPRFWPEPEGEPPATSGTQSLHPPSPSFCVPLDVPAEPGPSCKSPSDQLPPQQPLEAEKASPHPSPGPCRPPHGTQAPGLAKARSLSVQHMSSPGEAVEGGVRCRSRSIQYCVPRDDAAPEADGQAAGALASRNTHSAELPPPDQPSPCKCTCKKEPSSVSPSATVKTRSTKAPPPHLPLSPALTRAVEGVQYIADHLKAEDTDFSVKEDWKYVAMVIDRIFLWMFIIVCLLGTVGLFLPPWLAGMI
Data set [6] addresses T2, Neuronal acetylcholine receptor; alpha4/beta2.
Description: Agonist activity at human brain alpha4beta2 nAChR expressed in CHO cells by patch clamp electrophysiological assay
The target is the same in data set [7]. As to the kind of experiment: Agonist activity at human brain alpha4beta2 nAChR expressed in CHO cells assessed as maximal receptor response by patch clamp electrophysiological assay relative to control. The class given is cell-based.
For data set [8] the target is unchanged. As to the kind of experiment: Potency index, ratio of nicotine EC50 to compound EC50 for human brain alpha4beta2 nAChR expressed in CHO cells. The class given is cell-based.
The nature of data set [9]: Neuroprotective activity against glutamate-induced cell death in rat forebrain derived neurons assessed as neuron death at 100 nM incubated for 45 mins (reference value: 55%). Particulars: 0.75 h. The class given is functional.
A short description of data set [10]: Neuroprotective activity against Bay-K8644-induced calcium mobilization in rat forebrain derived neurons assessed as calcium elevation at 100 nM (reference value: 521 nM). The class given is functional, Neuron. (A change in cytosolic calcium serves as a functional read-out for many receptors and channels.)
Data set [11] is described as follows: Neuroprotective activity against NMDA-induced cell death in rat neurons assessed as cell survival pretreated for 45 mins followed by NMDA stimulation and measured after 30 mins by MTT assay (reference value: […]%). The class given is functional, Neuron. The conditions noted are these: time 75 min; 1.25 h.
Data set [12] is described as follows: Toxicity in female rat. The conditions noted are these: in vivo.
Data set [13] can be described thus: Neuroprotective activity against glutamate-induced calcium mobilization in rat forebrain derived neurons assessed as calcium elevation at 100 nM (reference value: 811 nM). The class given is functional, Neuron.
Data set [14] can be described thus: Toxicity in male rat. Particulars: in vivo.
Data set [15] concerns the target T2, Neuronal acetylcholine receptor; alpha4/beta2. As to the kind of experiment: Agonist activity at human brain alpha4beta2 nAChR expressed in Xenopus laevis oocytes assessed as peak response relative to acetylcholine response. The class given is cell-based. The conditions noted are these: Oocyte.
Data set [16] is described as follows: Toxicity in ip dosed mouse. The class given is organism-based. Particulars: in vivo.
The subject of data set [17] is Rattus norvegicus. As to the kind of experiment: Antihypertensive activity in spontaneously hypertensive rat assessed as reduction in blood pressure at 50 mg/kg, po measured after 3 hrs relative to control. The class given is functional. Set-up: scale not given: the % may be the effect or the level left.
Data set [18] deals with Rattus norvegicus. As to the kind of experiment: Antihypertensive activity in spontaneously hypertensive rat assessed as reduction in blood pressure at 50 mg/kg, po measured after 1 hr relative to control. The class given is functional. Also on record: scale not given: the % may be the effect or the level left.
The subject of data set [19] is Rattus norvegicus. As to the kind of experiment: Antihypertensive activity in spontaneously hypertensive rat assessed as reduction in blood pressure at 50 mg/kg, po measured after 5 hr relative to control. The class given is functional. Set-up: scale not given: the % may be the effect or the level left.
The target in data set [20] is T2, Neuronal acetylcholine receptor; alpha4/beta2. The source holds these as a separate data set.
For data set [21] the target is unchanged. As to the kind of experiment: Potency index, ratio of nicotine Ki to test compound Ki for Displacement of [3H]cytisine from human alpha4beta2 nAChR by Cheng-Prusoff equation analysis. The class given is protein-complex assay.
The target is the same in data set [22]. This is another data set of the same source.
Data set [23] shares this target. As to the kind of experiment: Potency index, ratio of nicotine IC50 to test compound IC50 for Displacement of [3H]cytisine from human alpha4beta2 nAChR by radioligand competition analysis. The class given is protein-complex assay. For orientation: Loss of bound radioactivity is the signal in a displacement assay; it reports binding, not function.
The target of data set [24] is T1, Acetylcholinesterase.
A further data set concerns the target Cholinesterase (Homo sapiens, UniProt P06276). As to the kind of experiment: Inhibition of BuChE (unknown origin).

Structures are written as SMILES.

Sequence of Cholinesterase (P06276 whole entry): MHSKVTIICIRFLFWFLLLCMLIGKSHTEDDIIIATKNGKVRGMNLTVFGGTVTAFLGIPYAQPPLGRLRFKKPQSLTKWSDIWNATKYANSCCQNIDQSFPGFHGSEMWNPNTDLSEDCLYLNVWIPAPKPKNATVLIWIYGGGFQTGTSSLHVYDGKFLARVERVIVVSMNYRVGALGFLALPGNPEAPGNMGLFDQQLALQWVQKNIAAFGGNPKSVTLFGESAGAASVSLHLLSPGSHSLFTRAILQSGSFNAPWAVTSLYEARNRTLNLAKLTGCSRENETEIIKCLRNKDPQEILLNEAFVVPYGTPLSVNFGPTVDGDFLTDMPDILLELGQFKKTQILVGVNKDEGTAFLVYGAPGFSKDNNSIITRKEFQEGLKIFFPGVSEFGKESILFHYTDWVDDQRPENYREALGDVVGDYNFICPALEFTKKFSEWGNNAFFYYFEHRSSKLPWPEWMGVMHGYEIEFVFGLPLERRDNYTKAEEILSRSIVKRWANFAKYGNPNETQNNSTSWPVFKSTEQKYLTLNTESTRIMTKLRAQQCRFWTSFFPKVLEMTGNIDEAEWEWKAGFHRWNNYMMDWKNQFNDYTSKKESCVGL
Sequence of Neuronal acetylcholine receptor; alpha4/beta2 (Rattus norvegicus, UniProt P09483+P12390) (P09483 whole entry): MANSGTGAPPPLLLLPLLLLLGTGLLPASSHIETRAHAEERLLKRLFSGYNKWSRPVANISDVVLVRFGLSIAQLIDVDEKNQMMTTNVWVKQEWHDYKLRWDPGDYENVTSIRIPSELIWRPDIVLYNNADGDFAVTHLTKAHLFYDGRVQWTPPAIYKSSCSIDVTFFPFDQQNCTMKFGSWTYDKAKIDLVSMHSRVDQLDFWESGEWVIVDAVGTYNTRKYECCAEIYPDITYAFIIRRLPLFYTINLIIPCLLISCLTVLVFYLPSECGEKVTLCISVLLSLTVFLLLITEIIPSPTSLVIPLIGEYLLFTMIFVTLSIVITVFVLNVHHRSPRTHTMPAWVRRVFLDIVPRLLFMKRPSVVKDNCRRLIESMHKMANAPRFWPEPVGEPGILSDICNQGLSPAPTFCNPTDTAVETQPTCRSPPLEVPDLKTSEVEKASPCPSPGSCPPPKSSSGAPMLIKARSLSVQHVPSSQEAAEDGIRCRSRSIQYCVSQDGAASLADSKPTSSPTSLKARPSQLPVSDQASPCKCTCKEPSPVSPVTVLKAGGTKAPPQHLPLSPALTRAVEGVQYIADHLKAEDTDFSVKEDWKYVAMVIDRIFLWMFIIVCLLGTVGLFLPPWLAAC
Sequence of Neuronal acetylcholine receptor; alpha4/beta2 (Rattus norvegicus, UniProt P09483+P12390) (P12390 whole entry): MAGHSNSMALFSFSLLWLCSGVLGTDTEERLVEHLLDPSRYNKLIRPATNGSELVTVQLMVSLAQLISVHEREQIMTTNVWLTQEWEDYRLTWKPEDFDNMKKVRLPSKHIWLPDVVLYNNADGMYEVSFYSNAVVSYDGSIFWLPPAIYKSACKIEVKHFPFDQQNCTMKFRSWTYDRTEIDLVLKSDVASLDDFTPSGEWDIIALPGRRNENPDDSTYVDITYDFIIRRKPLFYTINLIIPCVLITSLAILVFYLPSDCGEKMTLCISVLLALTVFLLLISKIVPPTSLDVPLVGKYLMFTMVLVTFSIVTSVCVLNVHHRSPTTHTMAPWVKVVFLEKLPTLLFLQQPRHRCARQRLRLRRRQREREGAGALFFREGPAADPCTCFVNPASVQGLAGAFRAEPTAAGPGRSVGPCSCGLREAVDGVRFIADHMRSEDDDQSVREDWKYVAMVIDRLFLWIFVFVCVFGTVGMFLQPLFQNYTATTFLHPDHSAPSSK

In general, IC50 refers to the midpoint of a concentration-inhibition curve. On to `C/C=C1\C2C=C(C)CC1(NCC(=O)OC)c1ccc(=O)[nH]c1C2` (stereo not given), for which the IC50 on Acetylcholinesterase [1] worked out at 6.71 µM.

On to `C=CC1C2C=C(CO)CC1(N)c1ccc(=O)[nH]c1C2` (stereo not given), for which it took 23.9 µM to reach half-maximal inhibition on Acetylcholinesterase [2] (IC50).

By inhibition is commonly meant the percentage by which the read-out fell short of the control. Usually Ki stands for a dissociation constant, usually derived from enzyme kinetics or from competition with a known ligand. Regarding `CN1CCC[C@H]1c1cncc([C@@H]2CCCN2C)c1`, the inhibition in the data set listed under Rattus norvegicus [3] was below 64%. This molecule yielded an inhibition constant Ki in data set [4] of 1.18 µM.

What is called EC50 is the concentration giving half of the maximal effect. For `CN1CC=CC[C@H]1c1cccnc1`, the Ratio in data set [5] is 6. In addition, the half-maximal effective concentration (EC50) in data set [6] amounted to 6.2 µM. Also, the Imax in data set [7] is 26%. Moreover, in data set [8], the Ratio EC50 stood at 8.

Usually LD50 stands for the dose at which mortality reaches 50%. For the molecule `C/C=C1\[C@H]2C=C(C)C[C@]1(N)c1ccc(=O)[nH]c1C2` [HUPERZINE A], the Activity in [9] is 30%; in [10], 505 nM; in data set [11], 85%; in data set [13], 668 nM. The figures for the median lethal dose (LD50) in data set [12] and in data set [14] were 2 mg/kg and above 4 mg/kg, respectively.

In the case of `C1=CC[C@H](c2cccnc2)NC1`, in [15], the Imax is 25%.

In turn, `O=C(O)c1ccc(Cc2ccc(O)cc2)cn1` yielded an LD50 in data set [16] of 350 mg/kg. Moreover, the figures for the Activity in the data set with Rattus norvegicus [17], in the data set on Rattus norvegicus [18] and in the data set on Rattus norvegicus [19] were 16%, 21% and 23%, respectively.

For `C[C@@H]1CC2C3Cn4c(cccc4=O)C(CN2C)C31` (stereo not given in full), in data set [20], the inhibitory constant (Ki) came to 0.00032 µM. The Ratio Ki in data set [21] was 5. This molecule returned an IC50 in [22] of 0.00096 µM. Besides, in data set [23], the Ratio IC50 came to 5.

Turning to `CC1=C[C@@H]2Cc3[nH]c(=O)ccc3[C@]3(C1)NCCC[C@H]23`, the IC50 against Acetylcholinesterase [24] came out at 2.57 µM; against Cholinesterase, 169 µM.
